Measured values: ChEMBL document CHEMBL1201862, “PubChem BioAssay data set” (2004)
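Interpolation was linear, between the two tested concentrations surrounding the appropriate level; five concentrations were tested over 48 hours in 96-well plates. GI50: concentration for 50% inhibition of growth.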 The source made the active and inactive calls. No stated cut-off is given here; in the data, active = GI50 up to about 1.1 µM and inactive = higher.

Columns and labels:
Test in all cases: NCI anticancer screen, dose series, 48 h
EKVX = test system: EKVX
COLO 205 = test system: COLO 205
HCT-15 = test system: HCT-15
UACC-62 = test system: UACC-62
SK-MEL-28 = test system: SK-MEL-28
CCRF-CEM = test system: CCRF-CEM
KM12 = test system: KM12
Malme-3M = test system: Malme-3M
SNB-78 = test system: SNB-78
MOLT-4 = test system: MOLT-4
K562 = test system: K562
SNB-19 = test system: SNB-19
NCI-H522 = test system: NCI-H522
OVCAR-4 = test system: OVCAR-4
TK-10 = test system: TK-10
RPMI-8226 = test system: RPMI-8226
LOX IMVI = test system: LOX IMVI
PC-3 = test system: PC-3
MDA-N = test system: MDA-N
MDA-MB-231 = test system: MDA-MB-231

| Compound | GI50 (EKVX) | GI50 (COLO 205) | GI50 (HCT-15) [µM] | GI50 (UACC-62) | GI50 (SK-MEL-28) | GI50 (CCRF-CEM) | GI50 (KM12) | GI50 (Malme-3M) | GI50 (SNB-78) | GI50 (MOLT-4) | GI50 (K562) | GI50 (SNB-19) | GI50 (NCI-H522) | GI50 (OVCAR-4) | GI50 (TK-10) | GI50 (RPMI-8226) | GI50 (LOX IMVI) | GI50 (PC-3) | GI50 (MDA-N) | GI50 (MDA-MB-231) |
| --- | --- | --- | --- | --- | --- | --- | --- | --- | --- | --- | --- | --- | --- | --- | --- | --- | --- | --- | --- | --- |
| COC1=CC(=O)[C@H]2[C@H](C)C(c3ccccc3)[C@@]2(C)C1=O (stereo partly drawn) | > 100 µM (inactive) | > 100 µM (inactive) | > 100 | > 100 µM (inactive) | > 100 µM (inactive) | > 100 µM (inactive) | > 100 µM (inactive) | > 100 µM (inactive) | > 100 µM (inactive) | > 100 µM (inactive) | > 100 µM (inactive) | > 100 µM (inactive) | > 100 µM (inactive) | > 100 µM (inactive) | > 100 µM (inactive) | > 100 µM (inactive) | > 100 µM (inactive) |  |  |  |
| CCOC(=O)c1oc2ccc(OC)c3c2c1CCC3 | > 100 µM (inactive) | > 100 µM (inactive) | > 100 | > 100 µM (inactive) | > 100 µM (inactive) | 46.7 µM (inactive) | > 100 µM (inactive) | > 100 µM (inactive) | > 100 µM (inactive) | 26.1 µM (inactive) | 55 µM (inactive) | > 100 µM (inactive) | 67.3 µM (inactive) | 51.6 µM (inactive) | 83.8 µM (inactive) | > 100 µM (inactive) | > 100 µM (inactive) |  |  |  |
| O=C1C(Cl)C(c2ccccc2)N1n1cnc2ccccc2c1=O (stereo not drawn) | 44.2 µM (inactive) | > 100 µM (inactive) | > 100 | > 100 µM (inactive) | > 100 µM (inactive) | > 100 µM (inactive) | > 100 µM (inactive) | > 100 µM (inactive) | > 100 µM (inactive) | > 100 µM (inactive) | > 100 µM (inactive) | 60.4 µM (inactive) | 55.3 µM (inactive) | > 100 µM (inactive) | > 100 µM (inactive) | 54.2 µM (inactive) | > 100 µM (inactive) |  |  |  |
| CC(=O)OC1CC2C(C)(C)C(=O)C=C[C@]2(C)C2CCC3(C)C(c4ccoc4)[C@@H](O)[C@H]4O[C@]43[C@]12C (stereo partly drawn) | 30.2 µM (inactive) | 19.8 µM (inactive) | 17.4 | 16.2 µM (inactive) | 23.7 µM (inactive) | 21.6 µM (inactive) | 19.2 µM (inactive) | 24.2 µM (inactive) | 25.6 µM (inactive) | 21.7 µM (inactive) | 16.4 µM (inactive) | 24 µM (inactive) | 14.6 µM (inactive) | 19.7 µM (inactive) | 34.2 µM (inactive) | 18.4 µM (inactive) | 16.9 µM (inactive) |  |  |  |
| COC(=O)C(CCS(=O)(=O)CC(=O)C(=O)Nc1cccc(C(C)=O)c1)C(=O)OC | > 100 µM (inactive) | > 54.5 µM (inactive) | > 72.1 | > 100 µM (inactive) | > 91.4 µM (inactive) | > 43.1 µM (inactive) | > 100 µM (inactive) | > 100 µM (inactive) | > 100 µM (inactive) | > 100 µM (inactive) | > 61 µM (inactive) | > 100 µM (inactive) | > 92.3 µM (inactive) | > 100 µM (inactive) | > 100 µM (inactive) | > 47.2 µM (inactive) | > 61.9 µM (inactive) |  |  |  |
| CC(/C=C/C=C\C=C\C=C(/C)C(=O)NC(C)CO)=C\C(C)C(O)/C(C)=C/C(C)CCc1ccccc1 (stereo not drawn) | 4.73 µM (inactive) | 13.7 µM (inactive) | 12.8 | 8.61 µM (inactive) | 12.9 µM (inactive) | 8.85 µM (inactive) | 2.32 µM (inactive) | 6.64 µM (inactive) | 8.04 µM (inactive) | 7.46 µM (inactive) | 0.364 µM (active) | 15.3 µM (inactive) | 2.77 µM (inactive) | 12.4 µM (inactive) | 14 µM (inactive) | 4.14 µM (inactive) |  | 7.94 µM (inactive) | 12.2 µM (inactive) | 14.6 µM (inactive) |
| O=C(CC1(O)C(=O)Nc2ccc(Br)cc21)c1ccc(Cl)cc1 (stereo not drawn) | > 100 µM (inactive) | > 100 µM (inactive) | > 100 | 36.2 µM (inactive) | > 100 µM (inactive) | 38.9 µM (inactive) | 47.4 µM (inactive) | > 100 µM (inactive) | 83.8 µM (inactive) | 43.3 µM (inactive) | 58.7 µM (inactive) | 84.9 µM (inactive) | > 100 µM (inactive) | 69.7 µM (inactive) | > 100 µM (inactive) | 42.3 µM (inactive) | 18.2 µM (inactive) |  |  |  |
| COc1ccccc1NC(=O)CC(=O)n1nc(C)c(/N=N/c2ccccc2Cl)c1C | > 90.4 µM (inactive) | > 100 µM (inactive) | > 100 | > 100 µM (inactive) | > 100 µM (inactive) | > 81.3 µM (inactive) | > 100 µM (inactive) | > 100 µM (inactive) | 5.12 µM (inactive) | 80.2 µM (inactive) | > 90.2 µM (inactive) | > 100 µM (inactive) | > 100 µM (inactive) | > 100 µM (inactive) | > 100 µM (inactive) | > 100 µM (inactive) | > 100 µM (inactive) | > 100 µM (inactive) | > 31.6 µM (inactive) | > 100 µM (inactive) |
| N#C/C(=C\c1cccc(Cl)c1Cl)c1ccccc1 | > 69.5 µM (inactive) | > 100 µM (inactive) | > 57.4 | 58.3 µM (inactive) | > 100 µM (inactive) | 39.3 µM (inactive) | > 82.4 µM (inactive) | > 48.2 µM (inactive) | 50.2 µM (inactive) | > 100 µM (inactive) | > 72.4 µM (inactive) | > 49.3 µM (inactive) | 52.8 µM (inactive) | 61.5 µM (inactive) | 57.3 µM (inactive) | > 61.9 µM (inactive) | > 75.9 µM (inactive) |  |  |  |
